Data as given in patent US8563503B2, “Antibiotic, its nucleotide sequence, methods of construction and uses thereof” (Protein Design Lab. Ltd., priority 2011, dated 2013).

Assays:
[1] = system: Multiple-drug resistance Pseudomonas aeruginosa (clinical separated strain 13280); assay: In vivo protection of mice infected by multiple-drug resistance Pseudomonas aeruginosa; set-up: species or system Kungming mice; conditions: fatal dose i.p.
Excerpt: (1) Drugs • PMC-PA, piperacillin, amikacin, ceftazidime, levofloxacin.
Multiple-drug resistance Pseudomonas aeruginosa (clinical separated strain 13280, isolated by laboratory bacteria room of West China Hospital)
Kungming mice (n=60), half male and half female, weighing 15-20 g were given intraperitoneal injection of multiple-drug resistance Pseudomonas aeruginosa, therein PMC-PA, piperacillin, amikacin, ceftazidime and levofloxacin experimental group were set respectively as 10 mice per group, while the control group was set as 10 mice per group. After given intraperitoneal injection of fatal dose of the bacterium, the mice in drug experimental groups respectively were given an intravenous injection of one kind of above drugs, the results were observed per 24 hours for continuous 10 days. The positive result was mouse's death.

[2] = system: Staphylococcus aureus ATCC 29213; assay: MIC against the infecting strain (Table 2); assay type: cell-based; conditions: ATCC29213
Procedure: (§1) (3) Culture Solution • MH Broth Culture Solution: 25 g was added into […] distilled water, heat to dissolve, subpackaged, autoclaved at 116° C. for 20 minutes, and MH Solid Culture Medium, 36 g was added into 1000 ml distilled water, autoclaved at 116° C. for 20 minutes, used for drug sensitive test of Gram-positive and negative aerobic bacteria. • Blood culture solution for Enterococcus faecalis, which was prepared by adding defibration rabbit blood into the MH culture solution by 5-10% and cultured at 37° C. in 5% CO2 for 24 hours. 2. Experimental Methods (1) The Measurement of Minimum Inhibitory Concentration (MIC) • The Minimum Inhibitory Concentration (MIC) of PMC-SA1 was measured by Agar Doubling Dilution Method. The bacterium was inoculated on the surface of agar plate containing different concentration of drugs by multipoint inoculate instrument (Deneley A400). The bacterial content per point was 10^5 CFU/ml. After incubated at 37° C. for 18-24 hours, the result can be observed. The least concentration of drugs in plate culture solution without bacterium growing was Minimum Inhibitory Concentration (MIC) of the drug to the said bacteria. 3. Results

[3] = system: Staphylococcus aureus MRSA BAA-42; assay: MIC against the infecting strain (Table 2); assay type: cell-based; conditions: Staphylococcus aureus MRSA BAA-42
Procedure: as §1

E. coli 02-1-65 = assay: Protection test in vivo (intravenous injection) of infected mice; set-up: species or system Kungming mice; conditions: mice, infected with 3.8 × 10^5 cfu/ml i.p., drug once intravenous
Procedure: (§2) The drugs used in this embodiment were same with that used in embodiment 4.
(§3) The above drugs were dissolved and diluted by sterilized water, and the injection concentrations of each drug were 10 mg/kg, 5 mg/kg and 2.5 mg/kg.
(§4) After given intraperitoneal injection of fatal dose of above-mentioned bacteria, the mice of each drug experimental group respectively were given once intravenous injection of the drug by 10 mg, 5 mg, 2.5 mg/kg. The results were observed per 24 hours for 7-14 days. The positive result is mice's death.

Enterococcus ATCC 700802 = assay: as above; set-up: species or system Kungming mice; conditions: mice, infected with 7.0 × 10^6 cfu/ml i.p., drug once intravenous
Procedure: as §2, §3, §4

[4] = system: Staphylococcus aureus ATCC 29213; assay: as above; set-up: species or system Kungming mice; conditions: mice, infected with 4.6 × 10^5 cfu/ml i.p., drug once intravenous
Procedure: as §2, §3, §4

[5] = system: Staphylococcus aureus MRSA BAA-42; assay: as above; set-up: species or system Kungming mice; conditions: mice, infected with 6.5 × 10^5 cfu/ml i.p., drug once intravenous
Procedure: as §2, §3, §4

[6] = system: methicillin-resistant Staphylococcus aureus ATCC BAA-42; assay: Bacteria growth curve (A595 nm), comparison of the novel antibiotics; assay type: cell-based; conditions: drug 5 μg/ml, 37° C., A595 nm per hour
Procedure: The following experiment was set for comparing bacteriostasis effects of 6 kinds of the novel antibiotics. The experimental bacteriaum was United States Standard Strain methicillin-resistant Staphylococcus aureus ATCC BAA-42. 5 microliter of bacteria solution (10^6 CFU/ml level bacterium amount) was added into 10 ml culture solution containing 1% peptone, 1% NaCl, 0.5% yeast extract, 0.5% glucose and 0.1% K2HPO4, total of 8 groups were prepared. The first group as control was added 0.3 M NaCl+50 mM boric acid buffer fluid by the same volume as that of antibiosis polypeptide liquid added in any experimental groups, the second group was added penicillin G sodium by 5 μg/ml, PMC-SA1, PMC-SA2, PMC-SA3, PMC-SA4, PMC-SE and PMC-PA were added in the other experimental groups with preservative fluid being 0.3 M NaCl+50 mM boric acid buffer fluid by 5 ug/ml.
The solution of above groups was put into 100 ml conical flask, 200 rpm, grew at 37° C. 100 μl was sampled per hour, and added onto 96-pore ELISA plate and measured bacteria grown cloudiness by spectrophotometer (A595 nm) color comparison. The bacteria growth curve was drawn up to compare the bacteriostasis efficacy of antibiosis polypeptide.

NCC[C@H](O)C(=O)N[C@@H]1C[C@H](N)[C@@H](O[C@H]2O[C@H](CN)[C@@H](O)[C@H](O)[C@H]2O)[C@H](O)[C@H]1O[C@H]1O[C@H](CO)[C@@H](O)[C@H](N)[C@H]1O [amikacin]
time in which mice were all dead ([1]; 5 mg/kg intravenous): ≤ 4 days

Cc1nnc(SCC2=C(C(=O)[O-])N3C(=O)[C@@H](NC(=O)Cn4cnnn4)[C@H]3SC2)s1.[Na+] [Cefazolin, Cefazolin Sodium]
MIC [2]: 7 mg/L
MIC [3]: 6 mg/L
ED50 (E. coli 02-1-65): >30 mg/kg
ED50 (Enterococcus ATCC 700802): >10 mg/kg
ED50 [4]: 29.11 mg/kg
ED50 [5]: 9.04 mg/kg

C[C@H]1COc2c(N3CCN(C)CC3)c(F)cc3c(=O)c(C(=O)O)cn1c23 [levofloxacin]
survival rate of mice in 10 days ([1]; 5 mg/kg intravenous): 40%

CCN1CCN(C(=O)N[C@@H](C(=O)N[C@@H]2C(=O)N3[C@@H]2SC(C)(C)[C@@H]3C(=O)O)c2ccccc2)C(=O)C1=O [piperacillin]
time in which mice were all dead ([1]; 50 mg/kg intravenous): ≤ 3 days

CC(C)(O/N=C(\C(=O)N[C@@H]1C(=O)N2C(C(=O)[O-])=C(C[n+]3ccccc3)CS[C@H]12)c1csc(N)n1)C(=O)O [ceftazidime]
survival rate of mice in 10 days ([1]; 50 mg/kg intravenous): 20%

B1: PMC-SA4: Staphylococcus aureus pheromone AgrD IV linked to C-terminus of allosteric colicin Ia′; SEQ ID NO. 19; plasmid pBHC-SA4 (protein)
chain: SDPVRITNPAAESLGYDSDGREIMGVDIYLNPPRVDVFKGTPPAWSSFGNKTIWGGNEWVDDSPTRSDIEKRDKEITAYKNTLSAQQKENENKRTEAGKRLSAAIAAREKDENTLKTLRAGNADAADITRQEFRLLQAELREYGFRTEIAGYDALRLHTESRMLFADADSLRISPREARSLIEQAEKRQKDAQNADKKAADMLAEYERRKGILDTRLSELEKNGGAALAVLDAQQARLLGQQTRNDRAISEARNKLSSVTESLNTARNALTRAEQQLTQQKNTPDGKTIVSPEKFPGRSSTNHSIVVSGDPRFAGTIKITTSAVIDNRANLNYLLSHSGLDYKRNILNDRNPVVTEDVEGDKKIYNAEVAEWDKLRQRLLDARNKITSAESAVNSARNNLSARTNEQKHANDALNALLKEKENIRNQLSGINQKIAEEKRKQDELKATKDAINFTTEFLKSVSEKYGAKAEQLAREMAGQAKGKKIRNVEEALKTYEKYRADINKKINAKDRAAIAAALESVKLSDISSNLNRFSRGLGYAGKFTSLADWITEFGKAVRTENWRPLFVKTETIIAGNAATALVALVFSILTGSALGIIGYGLLMAVTGALIDESLVEKANKFWGIYSTCYFIM
modifications: The peptide of PMC-SA4
notes: Staphylococcus aureus pheromone AgrD IV linked to C-terminus of allosteric colicin Ia′; 19; plasmid pBHC-SA4
bacteriostasis effect on growth of methicillin-resistant Staphylococcus aureus (bacteria growth curve) [6]: less better

B2: PMC-SA3: Staphylococcus aureus pheromone AgrD III linked to C-terminus of allosteric colicin Ia′; SEQ ID NO. 17; plasmid pBHC-SA3 (protein)
chain: SDPVRITNPAAESLGYDSDGREIMGVDIYLNPPRVDVFKGTPPAWSSFGNKTIWGGNEWVDDSPTRSDIEKRDKEITAYKNTLSAQQKENENKRTEAGKRLSAAIAAREKDENTLKTLRAGNADAADITRQEFRLLQAELREYGFRTEIAGYDALRLHTESRMLFADADSLRISPREARSLIEQAEKRQKDAQNADKKAADMLAEYERRKGILDTRLSELEKNGGAALAVLDAQQARLLGQQTRNDRAISEARNKLSSVTESLNTARNALTRAEQQLTQQKNTPDGKTIVSPEKFPGRSSTNHSIVVSGDPRFAGTIKITTSAVIDNRANLNYLLSHSGLDYKRNILNDRNPVVTEDVEGDKKIYNAEVAEWDKLRQRLLDARNKITSAESAVNSARNNLSARTNEQKHANDALNALLKEKENIRNQLSGINQKIAEEKRKQDELKATKDAINFTTEFLKSVSEKYGAKAEQLAREMAGQAKGKKIRNVEEALKTYEKYRADINKKINAKDRAAIAAALESVKLSDISSNLNRFSRGLGYAGKFTSLADWITEFGKAVRTENWRPLFVKTETIIAGNAATALVALVFSILTGSALGIIGYGLLMAVTGALIDESLVEKANKFWGIYINCDFLL
modifications: The peptide of PMC-SA3
notes: Staphylococcus aureus pheromone AgrD III linked to C-terminus of allosteric colicin Ia′; 17; plasmid pBHC-SA3
bacteriostasis effect on growth of methicillin-resistant Staphylococcus aureus (bacteria growth curve) [6]: still less better

B3: PMC-SA2: Staphylococcus aureus pheromone AgrD II linked to C-terminus of allosteric colicin Ia′; SEQ ID NO. 15; plasmid pBHC-SA2 (protein)
chain: SDPVRITNPAAESLGYDSDGREIMAVDIYLNPPRVDVFKGTPPAWSSFGNKTIWGGNEWVDDSPTRSDIEKRDKEITAYKNTLSAQQKENENKRTEAGKRLSAAIAAREKDENTLKTLRAGNADAADITRQEFRLLQAELREYGFRTEIAGYDALRLHTESRMLFADADSLRISPREARSLIEQAEKRQKDAQNADKKAADMLAEYERRKGILDTRLSELEKNGGAALAVLDAQQARLLGQQTRNDRAISEARNKLSSVTESLNTARNALTRAEQQLTQQKNTPDGKTIVSPEKFPGRSSTNHSIVVSGDPRFAGTIKITTSAVIDNRANLNYLLSHSGLDYKRNILNDRNPVVTEDVEGDKKIYNAEVAEWDKLRQRLLDARNKITSAESAVNSARNNLSARTNEQKHANDALNALLKEKENIRNQLSGINQKIAEEKRKQDELKATKDAINFTTEFLKSVSEKYGAKAEQLAREMAGQAKGKKIRNVEEALKTYEKYRADINKKINAKDRAAIAAALESVKLSDISSNLNRFSRGLGYAGKFTSLADWITEFGKAVRTENWRPLFVKTETIIAGNAATALVALVFSILTGSALGIIGYGLLMAVTGALIDESLVEKANKFWGIGVNACSSLF
modifications: The peptide of PMC-SA2
notes: Staphylococcus aureus pheromone AgrD II linked to C-terminus of allosteric colicin Ia′; 15; plasmid pBHC-SA2
bacteriostasis effect on growth of methicillin-resistant Staphylococcus aureus (bacteria growth curve) [6]: still less better
